≈ marks a conversion by molar mass, not a printed value.
Assays:
Test in all cases: ≥ marks a high value that may be exact or a test limit, other limits are often not marked, values filed in µg/mL are converted to µM
[1] = test system: Escherichia coli HB101
[2] = test system: Leishmania major MHOM/IL/67/JERICHO-II
[3] = test system: Staphylococcus aureus Cowan 1
[4] = test system: Candida albicans
[5] = test system: Cryptococcus neoformans
[6] = test system: Sporothrix schenckii
[7] = test system: Bacillus subtilis ATCC 6633
[8] = test system: Aspergillus fumigatus
[9] = test system: Trichophyton mentagrophytes
[10] = test system: Candida parapsilosis ATCC 22019
[11] = test system: Staphylococcus epidermidis NRRL B-4268
[12] = test system: Staphylococcus aureus MR
[13] = test system: Staphylococcus aureus ATCC 9144
[14] = test system: Escherichia coli ATCC 10536
[15] = test system: Pseudomonas aeruginosa ATCC BAA-427
[16] = test system: Klebsiella pneumoniae ATCC 27736
[17] = test system: Streptococcus mutans UA159
[18] = test system: Streptococcus sobrinus ATCC 6715
[19] = test system: Streptococcus sanguinis ATCC 10556
[20] = test system: Pectobacterium carotovorum
[21] = test system: Candida albicans CCARM 14020
[22] = test system: Candida albicans CCARM 14021
[23] = test system: Candida albicans SC5314
[24] = test system: Candida albicans CCARM 14022
[25] = test system: Staphylococcus epidermidis KCTC 1917
[26] = test system: Escherichia coli CCARM 1229
[27] = test system: Bacillus subtilis KCTC 3028
[28] = test system: Staphylococcus aureus KCTC 1621
[29] = test system: Salmonella typhimurium CCARM 8003
[30] = test system: Escherichia coli CCARM 1238
[31] = test system: Acinetobacter baumannii CCARM 12036
[32] = test system: Salmonella typhimurium CCARM 8007
[33] = test system: Escherichia coli KCTC 1682
[34] = test system: Acinetobacter baumannii KCTC 2508
[35] = test system: Staphylococcus aureus CCARM 3126
[36] = test system: Staphylococcus aureus CCARM 3108
[37] = test system: Staphylococcus aureus CCARM 3089
[38] = test system: Pseudomonas aeruginosa CCARM 2002
[39] = test system: Salmonella typhimurium KCTC 1926
[40] = test system: Pseudomonas aeruginosa CCARM 2095
[41] = test system: Pseudomonas aeruginosa KCTC 1637
[42] = test system: Acinetobacter baumannii CCARM 12035
[43] = test system: Staphylococcus aureus NCTC 6571
[44] = test system: Candida albicans NCTC 3179
[45] = test system: Escherichia coli ATCC 25922

For CSCC[C@H](NC(=O)[C@@H](NC(=O)CNC(=O)[C@H](CC(C)C)NC(=O)[C@H](CCCCN)NC(=O)[C@H](CCCCN)NC(=O)[C@H](CC(C)C)NC(=O)[C@H](CCSC)NC(=O)[C@@H](NC(=O)[C@H](CCCCN)NC(=O)[C@H](Cc1c[nH]c2ccccc12)NC(=O)[C@H](CC(C)C)NC(=O)[C@H](C)N)[C@@H](C)O)[C@@H](C)O)C(=O)N[C@@H](C)C(N)=O [ALWKTMLKKLGTMA], the MIC [1] was no less than 48.8 µM, the MIC [2] was no less than 48.8 µM and the MIC [3] was no less than 48.8 µM.
In the case of CC(C)C[C@H](NC(=O)[C@H](C)NC(=O)[C@H](CCCN=C(N)N)NC(=O)[C@H](CCCN=C(N)N)NC(=O)[C@H](C)NC(=O)[C@H](Cc1c[nH]c2ccccc12)NC(=O)[C@H](CCCCN)NC(=O)[C@H](CCCN=C(N)N)NC(=O)[C@H](C)NC(=O)[C@H](CCCN=C(N)N)NC(=O)[C@H](CCCN=C(N)N)NC(=O)[C@H](C)N)C(=O)N[C@@H](CCCCN)C(=O)N[C@@H](CC(C)C)C(=O)N[C@@H](C)C(N)=O [ARRARKWARRALKLA], the MIC [4] is reported as greater than 25 µM, the MIC [5] is reported as 25 µM (≈ 45.6 µg/mL) and the MIC [6] is reported as 25 µM (≈ 45.6 µg/mL). It also gave an MIC [7] of 20 µM (≈ 36.4 µg/mL), an MIC [8] of 25 µM (≈ 45.6 µg/mL) and an MIC [9] of 25 µM (≈ 45.6 µg/mL). It also gave an MIC [10] of 25 µM (≈ 45.6 µg/mL), an MIC [11] of 8 µM (≈ 14.6 µg/mL) and an MIC [12] of 25 µM (≈ 45.6 µg/mL). It also gave an MIC [13] of 6.25 µM (≈ 11.4 µg/mL), an MIC [14] of 4.5 µM (≈ 8.2 µg/mL) and an MIC [15] of 6.25 µM (≈ 11.4 µg/mL). For the same compound, the MIC [16] was 25 µM (≈ 45.6 µg/mL).
With CC(C)[C@H](NC(=O)[C@H](CCCCN)NC(=O)[C@H](Cc1ccccc1)NC(=O)[C@H](Cc1ccccc1)NC(=O)[C@H](CCCCN)NC(=O)[C@H](CCCCN)NC(=O)[C@H](Cc1ccccc1)NC(=O)[C@H](Cc1ccccc1)NC(=O)[C@H](CCCCN)NC(=O)CNC(=O)[C@H](Cc1c[nH]c2ccccc12)NC(=O)CN)C(=O)NCC(=O)N[C@@H](CCCCN)C(=O)O [GWGKFFKKFFKVGK] the MIC [17] was 18.8 µM (≈ 32 µg/mL), the MIC [18] was 18.8 µM (≈ 32 µg/mL) and the MIC [19] was 18.8 µM (≈ 32 µg/mL).
CC(C)C[C@H](NC(=O)[C@H](CC(N)=O)NC(=O)[C@H](Cc1ccc(O)cc1)NC(=O)[C@@H]1CCCN1C(=O)[C@@H]1CCCN1)C(=O)N[C@@H](CC(N)=O)C(=O)N[C@@H](CO)C(=O)N[C@@H](Cc1cnc[nH]1)C(=O)N[C@H](C(=O)N[C@@H](CCC(N)=O)C(=O)N[C@@H](CCC(=O)O)C(=O)N[C@@H](Cc1ccc(O)cc1)C(=O)N[C@@H](CO)C(=O)N[C@@H](CCCCN)C(=O)N1CCC[C@H]1C(=O)N[C@@H](CCC(=O)O)C(=O)N[C@@H](CC(=O)O)C(=O)N[C@H](C(=O)N[C@@H](Cc1ccccc1)C(=O)N[C@@H](CC(=O)O)C(=O)O)[C@@H](C)O)[C@@H](C)O [PPYNLNSHTQEYSKPEDTFD] gave an MIC [20] of 4.47 µM (≈ 10.7 µg/mL).
CC(C)C[C@H](NC(=O)[C@H](C)N)C(=O)N[C@@H](CC(C)C)C(=O)N[C@@H](Cc1cnc[nH]1)C(=O)N[C@@H](Cc1cnc[nH]1)C(=O)NCC(=O)N[C@@H](Cc1ccc(O)cc1)C(=O)N[C@@H](CCCCN)C(=O)N[C@@H](CCCN=C(N)N)C(=O)N[C@@H](CCCCN)C(=O)N[C@@H](Cc1ccccc1)C(=O)N[C@@H](Cc1cnc[nH]1)C(N)=O [ALLHHGYKRKFH] was tested, and the MIC [21] was 7.51 µM (≈ 11.3 µg/mL), the MIC [22] was 21.2 µM (≈ 32 µg/mL) and the MIC [23] was 15 µM (≈ 22.6 µg/mL). The MIC [24] was 21.2 µM (≈ 32 µg/mL).
Compound CC[C@H](C)[C@H](NC(=O)[C@H](C)NC(=O)[C@H](CCC(=O)O)NC(=O)[C@H](Cc1cnc[nH]1)NC(=O)[C@@H](NC(=O)[C@@H]1CCCN1C(=O)[C@H](CCC(N)=O)NC(=O)[C@H](Cc1ccccc1)NC(=O)[C@@H](NC(=O)[C@H](CCCCN)NC(=O)[C@H](CCCCN)NC(=O)[C@H](CC(C)C)NC(=O)[C@H](C)NC(=O)[C@H](CC(N)=O)NC(=O)[C@H](CC(C)C)NC(=O)CN)C(C)C)[C@@H](C)CC)C(=O)N[C@@H](CCCCN)C(=O)N[C@@H](CC(C)C)C(=O)N[C@H](C(=O)N[C@@H](CC(N)=O)C(=O)N[C@@H](CC(N)=O)C(=O)N[C@@H](Cc1cnc[nH]1)C(=O)N[C@H](C(=O)N[C@@H](CCC(N)=O)C(=O)O)C(C)C)[C@@H](C)CC [GLNALKKVFQPIHEAIKLINNHVQ] has an MIC [25] of no less than 32 µM, an MIC [26] of 8 µM (≈ 21.8 µg/mL) and an MIC [27] of no less than 32 µM. It also gave an MIC [28] of no less than 32 µM, an MIC [29] of 16 µM (≈ 43.6 µg/mL) and an MIC [30] of 8 µM (≈ 21.8 µg/mL). For the same compound, the MIC [31] was 8 µM (≈ 21.8 µg/mL), the MIC [32] was 8 µM (≈ 21.8 µg/mL) and the MIC [33] was 8 µM (≈ 21.8 µg/mL). It also gave an MIC [34] of 8 µM (≈ 21.8 µg/mL), an MIC [35] of no less than 32 µM and an MIC [36] of no less than 32 µM. For the same compound, the MIC [37] was no less than 32 µM, the MIC [38] was 16 µM (≈ 43.6 µg/mL) and the MIC [39] was 8 µM (≈ 21.8 µg/mL). It also gave an MIC [40] of 16 µM (≈ 43.6 µg/mL), an MIC [41] of 16 µM (≈ 43.6 µg/mL) and an MIC [42] of 8 µM (≈ 21.8 µg/mL).
In the case of CC[C@H](C)[C@H](NC(=O)[C@H](CCCN=C(N)N)NC(=O)[C@H](CCC(N)=O)NC(=O)[C@@H](NC(=O)[C@@H](NC(=O)[C@H](CCCN=C(N)N)NC(=O)[C@H](CCCCN)NC(=O)[C@H](Cc1ccccc1)NC(=O)[C@H](CCC(=O)O)NC(=O)[C@@H](N)CCCCN)[C@@H](C)CC)C(C)C)C(=O)N[C@@H](CCCCN)C(=O)N[C@@H](CC(=O)O)C(=O)N[C@@H](Cc1ccccc1)C(=O)N[C@@H](CC(C)C)C(=O)N[C@@H](CCCN=C(N)N)C(=O)N[C@@H](CC(N)=O)C(=O)N[C@@H](CC(C)C)C(=O)N[C@H](C(=O)O)C(C)C [KEFKRIVQRIKDFLRNLV], the MIC [43] is reported as 3.13 µM (≈ 7.2 µg/mL), the MIC [44] is reported as no less than 36.5 µM and the MIC [45] is reported as 0.912 µM (≈ 2.1 µg/mL).

— DBAASP
